Laboratory results: patent US20190388428A1, “A Pharmaceutical Composition Comprising An Oxazine Derivative And Its Use In The Treatment Or Prevention Of Alzheimer's Disease” (NOVARTIS AG, priority 2017, published 2019)

Columns and labels:
[1] = Drug-drug interaction study with strong CYP3A4 inhibitor itraconazole in healthy volunteers; type: in vivo, human; conditions: with itraconazole 200 mg q.d. vs Compound 1 alone
Source text: (§1) The DDI study design is outlined in FIG. 10.
(§2) An ANOVA model with fixed effects for treatment and subject was fitted to each log-transformed PK parameter. Results were back transformed to obtain ‘Adjusted geo-mean’, ‘Geo-mean ratio’ and ‘90% Cl’.

[2] = Physical properties of the drug substance (solubility, hygroscopicity, wettability); type: physicochemical
[3] = Drug-drug interaction study with strong CYP3A4 inducer rifampicin in healthy volunteers; type: in vivo, human; conditions: with rifampicin 600 mg q.d. vs Compound 1 alone
Source text: as §1, §2

[4] = Off-target binding or activity (background statement)
[5] = Chemical stability of crystalline Compound 1 at high temperature/humidity (UPLC purity); type: physicochemical; conditions: for Purity/%: crystalline material
Source text: After storage at high temperature and/or humidity, bulk crystalline material was sampled and dissolved in acetonitrile:water (80:20) and the purity analysed in a Waters Aquity UPLC using the following conditions: […]

increase of mean AUC [1]: 2-3 fold | increase of mean Cmax [1]: 25% | hygroscopicity [2]: non-hygroscopic | wettability [2]: poorly wettable | solubility in water ([2]; water): poorly soluble | decrease of mean AUC [3]: 5-6 fold | decrease of mean Cmax [3]: 2.5 fold | Solid State Form ([5]; 50° C./75% RH, 3 weeks): Crystalline | Solid State Form ([5]; 50° C., 4 weeks): Crystalline | Solid State Form ([5]; 80° C., 3 weeks): Crystalline | Solid State Form ([5]; RT, 0 (initial)): Crystalline | Purity/% ([5]; 50° C./75% RH, 3 weeks): 96.8% | Purity/% ([5]; 50° C., 4 weeks): 97.3% | Purity/% ([5]; 80° C., 3 weeks): 97.3% | Purity/% ([5]; RT, 0 (initial)): 97.3%
SMILES: C[C@@]1(c2nc(NC(=O)c3ncc(C(F)(F)F)cc3Cl)ccc2F)CO[C@@](C)(C(F)(F)F)C(N)=N1 [Compound 1, N-(6-((3R,6R)-5-amino-3,6-dimethyl-6-(trifluoromethyl)-3,6-dihydro-2H-1,4-oxazin-3-yl)-5-fluoropyridin-2-yl)-3-chloro-5-(trifluoromethyl)picolinamide]
off-target binding or activity [4]: no relevant off-target binding or activity
